Experiments:
[1] = test system: chicken chorioallantoic membrane (CAM); assay: Chicken chorioallantoic membrane (CAM) assay, angiostatic activity; assay type: in vivo
Source text: Compositions that stimulate or inhibit angiogenesis can be identified using several assays known in the art. The chick chorioallantoic membrane (CAM) assay is commonly used. Using the CAM assay, certain heparinoids inhibit angiogenesis when administered with certain steroids. Folkman and Ingber, Ann, Surg. (1987) 206:374, Folkman et at., Science (1983) 221:719.
Compositions that stimulate or inhibit angiogenesis can be identified using several assays known in the art. Highly sulfated maltotetraose, Composition 5, Table 2, was tested for angiogenesis activity using the chicken chorioallantoic membrane (CAM) assay. The assay was performed as described by Castellot et. at., J. of Cellular Physiology (1986) 127: 323-329, with the exception that samples were evaluated for their efficacy to inhibit neovascularization. Carboxy methyl cellulose pellets containing 50 ug of hydrocortisone, or hydrocortisone plus different amounts of highly sulfated maltotetraose were incubated on the CAM for 3-4 days before scoring the results. Highly sulfated maltotetraose was produced as described in Example 2. Angiostatic activity is defined as a partial clearing or an avascular zone around the pellet. […]

[2] = test system: pericyte and smooth muscle cell; conditions: literature; result in words; cited from earlier work
vascular proliferation = conditions: literature; result in words; cited from earlier work
bFGF = assay: Binding of RO-12 UC cells to bFGF coated micro-titer wells; assay type: cell-based, human; conditions: result in words, FIGS. 1 and 3
Description: Bound cells are readily quantitated as total protein.
The assay was run as follows: Fifty microliters of 10 ug/ml human recombinant bFGF was added to wells of a 96-well tissue culture plate and incubated overnight at 4° C. The wells were aspirated with PBS to remove any unbound bFGF, rinsed twice with PBS, and subsequently incubated with PBS containing 5% (v/v) fetal bovine serum for 1 hour at room temperature. RO-12 UC cells were suspended at a density of 3×10^6 cells/ml in PBS containing 5% fetal bovine serum. To this mixture was added the desired amount of sulfated composition, or heparin. […] Next, 100 ul of the cell suspension was immediately added to the microtiter wells, and incubated for 5 minutes, after which the wells were washed 3 times with PBS. Finally, the amount of cell protein bound to the wells was determined by dissolving the bound cells in 20 ul of 5% SDS and measuring the protein. concentration of the cell lysates. BSA was used as the standard.

[3] = test system: Bovine smooth muscle cells (SMC); assay: Inhibition of smooth muscle cell (SMC) growth; assay type: cell-based; conditions: for inhibition of SMC growth (anti-proliferative activity): relative to heparin
Source text: Maltotetraose, maltopentaose and maltohexaose were sulfated as described in Examples 1-3, and assayed for their effects on smooth muscle cell proliferation using a standard assay for this activity. A convenient assay, in detail, is as follows:
Solutions to be tested are made up in DMEM medium containing 10% fetal calf serum and penicillin/streptomycin. Bovine smooth muscle cells (SMC) are isolated from bovine aorta by the method of Ross, R., J Cell Biol (1971) 172-186. SMC from passage 3-10 are plated at 350-700 cells per well in 96-well microtiter plates in the medium above and allowed to attach for 2-4 hr. The complete medium is then replaced with DMEM supplemented with 0.1% fetal calf serum, and the cells are incubated for an additional period of about 24 to 72 hr to arrest cell growth. The low-serum medium is then replaced with complete medium containing the test samples. The sulfated maltose oligosaccharides of the invention were added to the medium to make final concentrations as shown in the figures. The effects of heparin at the same concentrations were also determined.
The cells are allowed to grow for up to 7 days with replicate plates sampled at regular intervals. Cell number is determined by removing the medium and washing the cells with phosphate-buffered saline, adding 75-150 ul lysis buffer, and assaying for lactate dehydrogenase (LDH) activity, as described by Brandley, B., et at., J Biol Chem (1987) 262:6431. The activity of LDH is proportional to cell number.

[4] = test system: basic fibroblast growth factor; conditions: literature; result in words; cited from earlier work
heparanase = assay: Heparanase inhibition, rat hepatoma cell heparanase; assay type: biochemical
Description: Highly sulfated maltotetraose, Composition 5, Table 2, maltoheptaose and maltose were tested for heparanase inhibitory activity using heparanase from a rat hepatoma cell line. […] Further, their inhibitory activities were compared to porcine mucosal heparin. […] The following procedures and materials were used. Confluent rat hepatoma cell cultures were grown in standard cell culture flasks, and washed 3 times with 10 ml of a 50 mM Hepes solution containing 0.25M sucrose and 0.14M NaCl, pH 7.4. Next, 1 ml of a 50 mM MES buffer, pH 5.2, containing 0.14M NaCl, 6 mM sodium azide, and certain protease inhibitors was added and the cells removed from the flask using a disposable cell scraper. The following protease inhibitors were present in the MES buffer: 0.2 ug/ml aprotinin, 0.5 ug/ml leupeptin, 100 ug/ml soybean trypsin inhibitor, 1 mM PMSF, 2 mM EDTA (sodium salt), and 15 mM D-saccharic acid 1,4 lactone (exoglucuronidase inhibitor).
The cells were added to a 7 ml Dounce homogenizer, freezed/thawed 3 times in an ethanol/dry ice bath, and homogenized with 15 strokes using a tight pestle. The resulting cell lysates were placed in a 2 ml centrifuge tube and centrifuged at 4° C. for 30 minutes at 16,000×g. The supernatant was removed, and the protein concentration in the supernatant determined using the Macro BCA protein assay. BSA was used as a standard. Heparanase activity was quantified by measuring soluble N-^3 H-acetylated pancreas heparan sulfate fragments derived from uncleaved N-^3 H-acetylated pancreas heparan sulfate distinguishable by cetylpyridinium chloride (CPC) precipitation. […] The following procedures were used.
Next, 10 ul of distilled water containing various concentrations of porcine mucosal heparin, or the appropriate highly sulfated maltooligosaccharide, was added. Then, 30 ul of rat hepatoma cell supernatant, isolated as described above, containing 7.5-10 ug of protein in 50mM MES buffer, pH 5.2, containing 0.14M NaCl, 6mM sodium azide and the protease inhibitors described above, is added to siliconized 1.5 ml microcentrifuge tubes. Three to six replicates were run for each concentration of highly sulfated maltotetraose while three replicates were run for each concentration of porcine mucosal heparin. Controls were run to account for background counts.
The enzyme substrate inhibitor mixture was mixed, after which the tubes were incubated at 37° C. for 20 minutes. After 20 minutes, the reaction was stopped by adding to the reaction tubes 150 ul of an aqueous heparin solution (0.33 mg/ml). 200 ul of 100 mM sodium acetate pH 5.5 and 100 ul of CPC (0.6% in water) were then added. Three replicates maintained on ice were run as background controls (0 min.) in which the enzyme was added to the tubes immediately followed by heparin to terminate the reaction. […]

[5] = test system: adrenocortical endothelial (ACE) cell line; assay: Inhibition of bFGF-dependent adrenocortical endothelial (ACE) cell proliferation; assay type: cell-based; conditions: 2 ng/ml bFGF, four days, result in words, FIGS. 2 and 4
Description: The capacity of the sulfated maltohexaoses to inhibit the proliferation of a bFGF-dependent adrenocortical endothelial (ACE) cell line was determined. This cell line (provided by D. Gospodarowicz, UCSF) requires either aFGF or bFGF for a proliferative response. Cells were seeded at low density in microtiter wells in the presence of 2 ng/ml bFGF, and growth was determined as total protein after four days in the presence of the sulfated maltohexaoses.

CAPAN-2 = CAPAN-2 pancreatic tumor growth in nude mice; assay type: in vivo, human tumor in nude mouse; conditions: dosed once daily from day 0; result in words
Description: (§1) Experiments were conducted to test the efficacy of highly sulfated maltotetraose, Composition 5, Table 2, on tumor growth in an animal model system, the nude mouse. The growth of human tumors in the nude mouse has clinical relevance to the growth of tumors in humans.
Three human tumor cell lines were utilized, the mammary adenocarcinoma, MDA231, the pancreatic tumor cell line, CAPAN-2, and the prostatic adenocarcinoma cell line, PC-3. All cell lines are available from the American Type Culture Collection, and grow aggressively in nude mice. The experiments were conducted as follows: female, 15-20 gram nude mice, in groups of ten, were inoculated subcutaneously with 3-5×10^6 viable MDA231, CAPAN-2, or PC-3 cells in 0.1 ml PBS. The cells were grown in standard DMEM tissue culture media supplemented with 10% fetal calf serum in a humidified 5% CO2 incubator at 37° C. The cells were harvested with trypsin-EDTA, washed 2× with PBS, resuspended at a concentration of 3-5×10^7 cells/ml, and placed on ice prior to injection. […]
(§2) Tumor volume was determined using the following formula: [formula]
The effects of highly satfated maltotetraose on CAPAN-2 tumor cell growth were determined using the materials and methods set forth above with the following exceptions. […]

MDA231 = MDA231 mammary adenocarcinoma tumor growth in nude mice; assay type: in vivo, human tumor in nude mouse; conditions: for MDA231 tumor growth inhibition: result in words
Description: as §1
(§3) Three human tumor cell lines were utilized, the mammary adenocarcinoma, MDA231, the pancreatic tumor cell line, CAPAN-2, and the prostatic adenocarcinoma cell line, PC-3. All cell lines are available from the American Type Culture Collection, and grow aggressively in nude mice. The experiments were conducted as follows: female, 15-20 gram nude mice, in groups of ten, were inoculated subcutaneously with 3-5×10^6 viable MDA231, CAPAN-2, or PC-3 cells in 0.1 ml PBS. The cells were grown in standard DMEM tissue culture media supplemented with 10% fetal calf serum in a humidified 5% CO2 incubator at 37° C. The cells were harvested with trypsin-EDTA, washed 2× with PBS, resuspended at a concentration of 3-5×10^7 cells/ml, and placed on ice prior to injection.
On a dally basis, the mice were subcutaneously injected with 100 mg/kg of highly sulfated maltotetraose made up in PBS, and produced as described in Example 2. The composition was filter sterilized with a 0.2 um Gelman filter unit.
as §2
Control mice were injected with PBS vehicle only. Experimental and control mice were injected twice daily with 0.05 ml of the appropriate solution starting on days 0-40 post tumor challenge. From days 41-70 the animals were dosed once daily with 100 mg/kg/day in a volume of 0.1 ml per injection, and tumor volume measured at defined times using standard methods.

PC-3 = PC-3 prostatic adenocarcinoma tumor growth in nude mice; assay type: in vivo, human tumor in nude mouse; conditions: 80 mg/kg/day subcutaneous, 23 days, all time points tested; result in words
Description: as §1, §3
[…] The composition was filter sterilized with a 0.2 um Gelman filter unit.
as §2
Finally, the effects of highly sulfated maltotetraose on the human prostatic adenocarcinoma line, PC-3, was determined. This cell line is also available from the American Type Culture Collection. […]

[6] = hydrocortisone 50 ug/pellet alone, 24 hr
[7] = listed as highly sulfated maltose
[8] = listed as highly sulfated maltotriose

## C[C@]12CCC(=O)C=C1CC[C@@H]1[C@@H]2[C@@H](O)C[C@@]2(C)[C@H]1CC[C@]2(O)C(=O)CO [Hydrocortisone, hydrocortisone]
[1]; [6]
  number of embryos scored, NO EFFECT: 27 embryos
  number of embryos scored, avascular zone (++): 0 embryos
  number of embryos scored, partial clearing (+): 2 embryos

## chondroitin sulfate
[2]
  inhibition of pericyte and/or smooth muscle cell proliferation: do not have this effect

## dermatan sulfate
[2]
  inhibition of pericyte and/or smooth muscle cell proliferation: do not have this effect

## heparan sulfate
Vascular proliferation
  vascular proliferation associated with injury: slow or arrest the vascular proliferation

## heparin
[2]
  inhibition of pericyte and/or smooth muscle cell proliferation: inhibitor of both pericyte and smooth muscle cell proliferation
bFGF
  inhibition of binding of RO-12 UC cells to bFGF coated wells: inhibits RO-12 UC cell binding
Vascular proliferation
  vascular proliferation associated with injury: slow or arrest the vascular proliferation
[3]; heparin reference
  concentration that gave 100% inhibition of SMC proliferation: 150 µg/mL
[4]
  binding to basic fibroblast growth factor: binds heparin quite strongly in vitro

## highly sulfated maltoheptaose [Composition 7]
heparanase; result in words
  heparanase inhibition: as active as heparin
bFGF
  inhibition of binding of RO-12 UC cells to bFGF coated wells: significant activity
[5]
  inhibition of adrenocortical endothelial cell proliferation: significant activity

## highly sulfated maltopentaose [Composition 6]
bFGF
  inhibition of binding of RO-12 UC cells to bFGF coated wells: significant activity
[3]; about 50 ug/ml
  inhibition of SMC growth, per cent of heparin inhibition: 100%
[3]; result in words
  inhibition of SMC growth (anti-proliferative activity): more effective in inhibiting SMC proliferation than the smaller-sized sulfated maltotetraose
[5]
  inhibition of adrenocortical endothelial cell proliferation: significant activity

## highly sulfated maltose [Composition 9]
heparanase; at greater than 200 ug/ml, result in words
  heparanase inhibition: no activity
bFGF
  inhibition of binding of RO-12 UC cells to bFGF coated wells: little or no activity relative to the highly sulfated maltotetraose composition
bFGF; [7]
  inhibition of binding of RO-12 UC cells to bFGF coated wells: less active
[5]
  inhibition of adrenocortical endothelial cell proliferation: little or no activity relative to the highly sulfated maltotetraose composition
[5]; [7]
  inhibition of adrenocortical endothelial cell proliferation: less active

## highly sulfated maltotetraose [Composition 5]
heparanase; rat hepatoma heparanase, pH 5.2, 37° C., 20 minutes
  heparanase IC50: 9.0 µg/mL
heparanase; result in words, FIG. 11
  heparanase inhibition relative to porcine mucosal heparin: approximately one half as effective as porcine mucosal heparin
bFGF
  inhibition of binding of RO-12 UC cells to bFGF coated wells: significant activity
CAPAN-2
  CAPAN-2 tumor growth inhibition: significantly inhibits tumor growth
[1]; HSM alone, without hydrocortisone, result in words
  angiostatic activity: inactive
MDA231; 100 mg/kg subcutaneous
  MDA231 tumor growth inhibition: tumor growth is significantly inhibited
MDA231; MDA231, about
  time at which inhibition is first apparent: 36 to 37 days
MDA231; MDA231, days 68-69, control about 375 mm^3
  tumor volume: ~125 mm^3
MDA231; by days 68-69
  MDA231 tumor growth inhibition: dramatic
[3]; 150 ug/ml, result in words
  inhibition of SMC growth: one hundred per cent inhibition was not observed
[3]; about 60 ug/ml
  inhibition of SMC growth, per cent of heparin inhibition: about 50%
[3]; result in words
  inhibition of SMC growth (anti-proliferative activity): significant anti-proliferative effects, although not as great as heparin
[5]
  inhibition of adrenocortical endothelial cell proliferation: significant activity
PC-3
  PC-3 growth inhibition: inhibited PC-3 cell growth at all the time points tested

## highly sulfated maltotriose [Composition 8]
bFGF; [8]
  inhibition of binding of RO-12 UC cells to bFGF coated wells: less active
bFGF; listed as sulfated maltotriose
  inhibition of binding of RO-12 UC cells to bFGF coated wells: little or no activity
[5]; [8]
  inhibition of adrenocortical endothelial cell proliferation: less active
[5]; listed as sulfated maltotriose
  inhibition of adrenocortical endothelial cell proliferation: little or no activity

Reference: patent US5739115A, “Sulfated maltooligosaccharides with heparin-like properties” (Glycomed Incorporated, priority 1994, dated 1998)
